The test system of assay [1] is Human ovary cancer A2780 cells xenografts. In words: Inhibition of ovarian A2780 tumor growth in vivo (xenograft). Set-up: species or system Nude:Hsd mice. Conditions: A2780 xenograft in nude mice. The method, then: Groups were composed of 7-8 mice per group.
The procedure was followed for the A2780 ovary cancer cell in-vivo study with the following modifications:
The Veh group received PBS. The CDDP group received 8 mg/kg CDDP (Cisplatin) twice a week.

For assay [2], the system named is IGF1R related cell signaling in human breast cancer MCF7 cells. Conditions: FIG. 15; for IGF1-induced tyrosine phosphorylation of IRS1: 50 ng/ml IGF-1 stimulation.
Procedure: (§2) Tyrosine autophosphorylation of the β-subunit of IGF1R as well as downstream signaling induced by IGF1R were assayed in human breast cancer MCF7 cells and in melanoma A375 cells. Cells were seeded in 6-well plates (250,000 cells/well) and 24 hours later medium was replaced by serum-free medium (RPMI supplemented with 100 units/ml penicillin and 100 μg/ml streptomycin). Following 20 hours of serum-starvation, medium was replaced with serum-free medium containing various concentrations of the inhibitors in 0.1% DMSO for an additional 4-5 hours. […] Equal amounts of protein per lane were separated by 8% SDS-PAGE and transferred to a nitrocellulose membrane (Sartorius AG). […] Detection was performed with horseradish peroxidase-conjugated secondary antibody using the ECL system. Blots were then stripped of antibodies, blocked with TBST with 5% low fat milk and re-probed with antibodies detecting both the phosphorylated and the non-phosphorylated corresponding proteins e.g. IGF1Rβ, IRS1, PKB, and ERK. Anti-actin antibodies served as control.
(§3) In addition, lysates were prepared from cells exposed to inhibitors at various concentrations for 24 hours in the presence or the absence of FCS without stimulation. Lysate preparation and western blot were performed as described above.
Assay [3] deals with IGF1R related cell signaling in human melanoma A375 cells. To be noted: FIGS. 14 and 16; for IGF1-induced tyrosine phosphorylation of IRS1: 50 ng/ml IGF-1 stimulation.
Procedure: as §2, §3
In assay [4] the test system is Human melanoma A375 cells xenografts. To be noted: A375 xenograft in nude mice, IP 50 mg/kg daily or 100 mg/kg every other day.
Procedure: Human melanoma A375 cells (ATCC, 2×10^6 cells per mouse) were injected subcutaneously into the flank of Nude:Hsd mice. Eight days later, when tumors were formed, mice were divided into 3 groups with similar average tumor size of 120 mm^3. […] The Veh group received daily 2% EtOH, 6% Tween-80 in DDW at volume of 10 ml/kg. Groups were composed of 7-8 mice per group. The length (l) and the width (w) of the tumors were measured twice a week, as well as the mouse body weight. The volumes of the tumors were calculated as follows: v=lw^2/2. Graphs present average volumes of the tumors versus days following treatment initiation.
The mice were treated with daily or alternate day IP injections, at the specified doses.
In a further assay the test system is A375 cells. In words: cells. Conditions: Homo sapiens, A-375, 168 h, read-out: CF (colony formation in soft agar) IC50. As to the method:
(§1) Suspensions of separated A375 and U138MG cells were plated in 50 μl growth medium containing 0.3% agar on top of a 100 μl layer of growth medium containing 1% agar in 96-well plates. Growth medium (50 μl) supplemented with inhibitors at various concentrations was added on top. Six to seven days after plating, colonies were stained with 0.5% MTT for 4 hours, and dye was then extracted by the addition of 100 μl dissolving buffer, containing 5 gr sodium dodecyl sulfate, 8.75 ml DDW, 12.5 ml dimethyl formamide, 0.5 ml acetic acid and 0.07 ml HCl. Following incubation overnight at 37° C., optical density values were read at 570 nm in ELISA plate reader. The data was analyzed in Microsoft Excel, using the vehicle control as 100% proliferation. The assays were performed in triplicates. The values of IC50 were derived from the dose-dependent growth curves obtained.

The next assay concerns U138MG cells. The assay can be described thus: cells. To be noted: Homo sapiens, U138-MG, 168 h, read-out: CF (colony formation in soft agar) IC50. The method, then: as §1

With `[NH2][Pt]([NH2])([Cl])[Cl]` [CDDP, Cisplatin, reference compound], the “inhibition of ovarian tumor growth” value in assay [1] (8 mg/kg twice a week) came to 14%.

As to `Oc1cc(/C=C/C(=S)NCc2cc(O)c(O)c(O)c2Br)cc(Br)c1O` [Compound 4], in assay [2], the “IGF1-induced tyrosine phosphorylation of IRS1” value is given as “inhibited”; the “serine phosphorylation of IRS1 (pS636/639-IRS1) and IRS1 level” value (shortened to “serine phosphorylation of IRS1”) is on record as “induce serine phosphorylation of IRS1, followed by its degradation”.

`Oc1cc(CNC(=S)/C=C/c2ccc(O)c(O)c2Br)cc(O)c1O` [Compound 5]: the “IGF1-induced tyrosine phosphorylation of IRS1” value in assay [3] and in assay [2] was “inhibited” each time. Also, the “serine phosphorylation of IRS1” value was “induce serine phosphorylation of IRS1, followed by its degradation” in assay [3] and “induce serine phosphorylation of IRS1, followed by its degradation” in assay [2]. For the same molecule, in assay [4], the “inhibition of melanoma tumor growth” value is recorded as 70%. For the same molecule, the “inhibition of ovarian tumor growth” value in assay [1] (IP daily 25 mg/kg in PBS) was 45%. The values for the IC50 in the assay on A375 cells and in the assay with U138MG cells were 400 nM and 2600 nM, respectively.

Regarding `Oc1cc(Br)c(/C=C/C(=S)NCc2cc(O)c(O)c(O)c2)cc1O` [Compound 6], in assay [3], the “IGF1-induced tyrosine phosphorylation of IRS1” value was “inhibited”; the “serine phosphorylation of IRS1” value was “induce serine phosphorylation of IRS1, followed by its degradation”.

The term IC50 denotes the midpoint of a concentration-inhibition curve.

For the origin of these results see patent US8536227B2, “Modulators of protein kinase signaling” (Novotyr Therapeutics Ltd., priority 2008, dated 2013).
